IC50 data for 15 molecules are collected here from US20100041642A1, “UREA INHIBITORS OF MAP KINASES” (LOCUS PHARMACEUTICALS, INC., priority 2008, published 2010).

Usually IC50 stands for the concentration that inhibits the measured activity by half.

p38, sequence (Q16539 whole entry, the tested form may be a part): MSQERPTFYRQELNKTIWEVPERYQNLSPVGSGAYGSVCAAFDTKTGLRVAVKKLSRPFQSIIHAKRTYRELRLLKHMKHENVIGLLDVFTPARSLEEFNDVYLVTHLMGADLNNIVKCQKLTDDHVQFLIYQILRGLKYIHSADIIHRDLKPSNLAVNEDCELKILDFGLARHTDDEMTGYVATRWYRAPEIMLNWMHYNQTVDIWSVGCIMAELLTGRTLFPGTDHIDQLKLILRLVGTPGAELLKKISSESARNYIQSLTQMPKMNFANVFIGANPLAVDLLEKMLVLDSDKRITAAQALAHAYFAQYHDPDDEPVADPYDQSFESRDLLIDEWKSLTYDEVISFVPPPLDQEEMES

The assay has as its target p38 (Homo sapiens, UniProt Q16539). In words: Protein Kinase Assay (33P incorporation from γ-[33P]ATP into GST-ATF-2). The format is biochemical. To be noted: 2 nM p38, preincubated 20 min at 30° C.; 10 uM cold ATP, 2 uM GST-ATF2, 70 min; read-out: ACT. (Activity), IC50 category in Protein Kinase Assay. The gist of the method: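 Compounds preincubated 20 min at 30 °C with 2 nM p38; reaction started with 2 uM GST-ATF-2 (aa 19-96) and 10 uM ATP plus γ-[33P]ATP, pH 7.5, 70 min at 30 °C, 2% DMSO. Phosphoric acid stop; 33P-labelled substrate captured on phosphocellulose and counted by scintillation.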
For `Cc1ccc(NC(=O)Nc2sc(C(C)(C)C)cc2C(=O)N2CCN(C)C(=O)C2(C)C)cc1-c1ccc(C[N+]2([O-])CCOCC2)[n+]([O-])c1` [4-((5-(5-(3-(5-tert-butyl-3-(2,2,4-trimethyl-3-oxopiperazine-1-carbonyl)thiophen-2-yl)ureido)-2-methylphenyl)-1-oxidopyridin-2-yl)methyl)morpholine 4-oxide], the IC50 is under 1000 nM.
For `Cc1ccc(NC(=O)Nc2sc(C(C)(C)C)cc2C(=O)N2CCN(C)C(=O)C2(C)C)cc1-c1ccc(C[N+]2([O-])CCOCC2)nc1` [4-((5-(5-(3-(5-tert-butyl-3-(2,2,4-trimethyl-3-oxopiperazine-1-carbonyl)thiophen-2-yl)ureido)-2-methylphenyl)pyridin-2-yl)methyl)morpholine 4-oxide], the IC50 was under 100 nM.
In the case of `CCNC(=O)c1ccc(-c2cc(NC(=O)Nc3cn(C(C)(C)C)nc3C(=O)N3CCN(C)C(=O)C3(C)C)ccc2C)cn1` [5-(5-(3-(1-tert-butyl-3-(2,2,4-trimethyl-3-oxopiperazine-1-carbonyl)-1H-pyrazol-4-yl)ureido)-2-methylphenyl)-N-ethylpyridine-2-carboxamide] it was under 100 nM; in that of `CCNC(=O)c1ccc(-c2cc(NC(=O)Nc3cn(C(C)(C)C)nc3C(=O)N3CCNC(=O)C3(C)C)ccc2C)cn1` [5-(5-(3-(1-tert-butyl-3-(2,2-dimethyl-3-oxopiperazine-1-carbonyl)-1H-pyrazol-4-yl)ureido)-2-methylphenyl)-N-ethylpyridine-2-carboxamide], under 100 nM; in that of `CCNC(=O)c1ccc(-c2cc(NC(=O)Nc3sc(C(C)(C)C)nc3C(=O)N3CCN(C)C(=O)C3(C)C)ccc2C)cn1` [5-(5-(3-(2-tert-butyl-4-(2,2,4-trimethyl-3-oxopiperazine-1-carbonyl)thiazol-5-yl)ureido)-2-methylphenyl)-N-ethylpyridine-2-carboxamide], under 100 nM.
The result for `CCNC(=O)c1ccc(-c2cc(NC(=O)Nc3cc(C(C)(C)C)oc3C(=O)N3CCN(C)C(=O)C3(C)C)ccc2C)cn1` [5-(5-(3-(5-tert-butyl-2-(2,2,4-trimethyl-3-oxopiperazine-1-carbonyl)furan-3-yl)ureido)-2-methylphenyl)-N-ethylpyridine-2-carboxamide] reads under 100 nM; that for `CCNC(=O)c1ccc(-c2cc(NC(=O)Nc3cc(C(C)(C)C)sc3C(=O)N3CCN(C)C(=O)C3(C)C)ccc2C)cn1` [5-(5-(3-(5-tert-butyl-2-(2,2,4-trimethyl-3-oxopiperazine-1-carbonyl)thiophen-3-yl)ureido)-2-methylphenyl)-N-ethylpyridine-2-carboxamide], under 100 nM; that for `COCCNC(=O)c1ccc(-c2cc(NC(=O)Nc3sc(C(C)(C)C)cc3C(=O)N3CCN(C)C(=O)C3(C)C)ccc2C)cn1` [5-(5-(3-(5-tert-butyl-3-(2,2,4-trimethyl-3-oxopiperazine-1-carbonyl)thiophen-2-yl)ureido)-2-methylphenyl)-N-(2-methoxyethyl)pyridine-2-carboxamide], under 100 nM.
In the case of `CCNC(=O)c1ccc(-c2cc(NC(=O)Nc3sc(C(C)(C)C)cc3C(=O)N3CCN(C)C(=O)C3(C)C)ccc2C)cn1` [5-(5-(3-(5-tert-butyl-3-(2,2,4-trimethyl-3-oxopiperazine-1-carbonyl)thiophen-2-yl)ureido)-2-methylphenyl)-N-ethylpyridine-2-carboxamide] it was under 100 nM; in that of `CON(C)C(=O)c1ccc(-c2cc(NC(=O)Nc3sc(C(C)(C)C)cc3C(=O)N3CCN(C)C(=O)C3(C)C)ccc2C)cn1` [5-(5-(3-(5-tert-butyl-3-(2,2,4-trimethyl-3-oxopiperazine-1-carbonyl)thiophen-2-yl)ureido)-2-methylphenyl)-N-methoxy-N-methylpyridine-2-carboxamide], under 100 nM.
With `Cc1ccc(NC(=O)Nc2sc(C(C)(C)C)cc2C(=O)N2CCN(C)C(=O)C2(C)C)cc1-c1ccc(C(N)=O)nc1` [5-(5-(3-(5-tert-butyl-3-(2,2,4-trimethyl-3-oxopiperazine-1-carbonyl)thiophen-2-yl)ureido)-2-methylphenyl)pyridine-2-carboxamide], the IC50 was under 100 nM.
The result for `CCNC(=O)c1ccc(-c2cc(NC(=O)Nc3sc(C(C)(C)C)cc3C(=O)N3CCNC(=O)C3(C)C)ccc2C)cn1` [5-(5-(3-(5-tert-butyl-3-(2,2-dimethyl-3-oxopiperazine-1-carbonyl)thiophen-2-yl)ureido)-2-methylphenyl)-N-ethylpyridine-2-carboxamide] reads under 100 nM.
In the case of `CNC(=O)c1ccc(-c2cc(NC(=O)Nc3sc(C(C)(C)C)cc3C(=O)N3CCNC(=O)C3(C)C)ccc2C)cn1` [5-(5-(3-(5-tert-butyl-3-(2,2-dimethyl-3-oxopiperazine-1-carbonyl)thiophen-2-yl)ureido)-2-methylphenyl)-N-methylpyridine-2-carboxamide] it was under 100 nM; in that of `Cc1ccc(NC(=O)Nc2sc(C(C)(C)C)cc2C(=O)N2CCN(C)C(=O)C2(C)C)cc1-c1ccc(NS(C)(=O)=O)nc1` [N-(5-(5-(3-(5-tert-butyl-3-(2,2,4-trimethyl-3-oxopiperazine-1-carbonyl)thiophen-2-yl)ureido)-2-methylphenyl)pyridin-2-yl)methanesulfonamide], under 100 nM; in that of `COC(=O)CN1CCN(C(=O)c2cc(C(C)(C)C)sc2NC(=O)Nc2ccc(C)c(-c3ccncc3)c2)C(C)(C)C1=O` [methyl 2-(4-(2-tert-butyl-5-(3-(4-methyl-3-(pyridin-4-yl)phenyl)ureido)thiophene-4-carbonyl)-3,3-dimethyl-2-oxopiperazin-1-yl)acetate], under 100 nM.
